Assay results reported in patent US12454530B2, “Amido cyclohexane acid derivatives as LPA receptor inhibitors” (CHIESI FARMACEUTICI S.P.A., priority 2020, dated 2025).

Tests used:
[1] = Permeability on Caco-2 cells monolayers; assay type: in vitro ADME; conditions: human, with Elacridar 10 µM (PgP inhibitor), Papp A>B with PgP inhibitor Elacridar, 10 μM compound, read-out: Passive Permeability
Protocol: Even more advantageously, the compounds of formula (I) of the present invention are also endowed with a good permeability profile that, in its turn, can ensure a suitable bioavailability for an oral administration. The permeability was assessed in human Caco 2 cell line, an in vitro model that mimic human gastrointestinal barrier and so useful to predic oral absorption.
The permeability of the compounds of the present invention was evaluated performing the assay on Caco-2 cells monolayers (human colon adenocarcinoma immortalized cell) by measuring the transport of compound (absorption and secretion) in both directions: apical to basolateral direction (A>B) and basolateral to apical (B>A) with and without PgP inhibitor (Elacridar).
The cells, purched from ReadyCell in 96 well format (Cod. KRECE-CCR50), were cultured by the supplier for 21 day on transwell supports in DMEM 1 g/L glucose culture medium supplemented with Fetal Bovin Sierum (10%), Glutamine 200 mM (1%) and Penicillin 10000 U/ml-10 mg/ml Streptomycin (1%).
On day 21 of colture, cell monolayers integrity was verified by measuring the trans-epithelial electric resistance (TEER) using the EVOM equipment (Endohm, WPI, Germany) and studying the apparent permeability (Papp) of reference compounds (Sulpiride and Metoprolol). Furthermore, as a control, the Talinolol 10 uM (Pgp efflux substrate) with and without Elacridar in both directions was used.
The sample solution was prepared dissolving test compound in DMSO at the concentration of 10 mM and then diluted in the Assay Buffer (Hank's Balance Salt Solution) warmed at 37° C. before use, to give the 10 μM Compound working solution with and without 10 μM Elacridar. These working solutions were added to donor compartment (apical for A>B direction and basolateral for B>A direction) and Assay Buffer (Hank's Balance Salt Solution) to the receiver compartment (basolateral for A>B direction and apical for B>A direction). The plate was incubated at 37° C. for 120 min, all incubation were conducted in triplicates. At the end of incubation, samples from donor and receiver compartments were collected for HPLC-MS/MS analyses.
The permeability coefficients (Papp) in both directions: apical to basolateral (A>B) and basolateral to apical (B>A) with and without PgP inhibitor (Elacridar) was calculated in nm/sec, using the following equation:
[formula] • where: • Cr=measured concentration in the receiver well at the time t (expressed as IS ratio) • Vr=volume of the receiver well (ml) • t=time (sec) • A=membrane surface area (cm^2) • C0=initial donor concentration • Passive Papp is considered Papp A>B with PgP inhibitor Elacridar.

[2] = molecular target: BSEP (Homo sapiens (Human), UniProt O95342); assay: BSEP inhibition: biliary clearance of Taurocolic Acid in sandwich-cultured human hepatocytes; assay type: in vitro ADME; conditions: sandwich-cultured cryopreserved human hepatocytes, probe Taurocolic Acid (TCA); 50 μM test compound, 10 μM TCA, human hepatocytes sandwich configuration
BSEP, sequence (O95342 whole entry): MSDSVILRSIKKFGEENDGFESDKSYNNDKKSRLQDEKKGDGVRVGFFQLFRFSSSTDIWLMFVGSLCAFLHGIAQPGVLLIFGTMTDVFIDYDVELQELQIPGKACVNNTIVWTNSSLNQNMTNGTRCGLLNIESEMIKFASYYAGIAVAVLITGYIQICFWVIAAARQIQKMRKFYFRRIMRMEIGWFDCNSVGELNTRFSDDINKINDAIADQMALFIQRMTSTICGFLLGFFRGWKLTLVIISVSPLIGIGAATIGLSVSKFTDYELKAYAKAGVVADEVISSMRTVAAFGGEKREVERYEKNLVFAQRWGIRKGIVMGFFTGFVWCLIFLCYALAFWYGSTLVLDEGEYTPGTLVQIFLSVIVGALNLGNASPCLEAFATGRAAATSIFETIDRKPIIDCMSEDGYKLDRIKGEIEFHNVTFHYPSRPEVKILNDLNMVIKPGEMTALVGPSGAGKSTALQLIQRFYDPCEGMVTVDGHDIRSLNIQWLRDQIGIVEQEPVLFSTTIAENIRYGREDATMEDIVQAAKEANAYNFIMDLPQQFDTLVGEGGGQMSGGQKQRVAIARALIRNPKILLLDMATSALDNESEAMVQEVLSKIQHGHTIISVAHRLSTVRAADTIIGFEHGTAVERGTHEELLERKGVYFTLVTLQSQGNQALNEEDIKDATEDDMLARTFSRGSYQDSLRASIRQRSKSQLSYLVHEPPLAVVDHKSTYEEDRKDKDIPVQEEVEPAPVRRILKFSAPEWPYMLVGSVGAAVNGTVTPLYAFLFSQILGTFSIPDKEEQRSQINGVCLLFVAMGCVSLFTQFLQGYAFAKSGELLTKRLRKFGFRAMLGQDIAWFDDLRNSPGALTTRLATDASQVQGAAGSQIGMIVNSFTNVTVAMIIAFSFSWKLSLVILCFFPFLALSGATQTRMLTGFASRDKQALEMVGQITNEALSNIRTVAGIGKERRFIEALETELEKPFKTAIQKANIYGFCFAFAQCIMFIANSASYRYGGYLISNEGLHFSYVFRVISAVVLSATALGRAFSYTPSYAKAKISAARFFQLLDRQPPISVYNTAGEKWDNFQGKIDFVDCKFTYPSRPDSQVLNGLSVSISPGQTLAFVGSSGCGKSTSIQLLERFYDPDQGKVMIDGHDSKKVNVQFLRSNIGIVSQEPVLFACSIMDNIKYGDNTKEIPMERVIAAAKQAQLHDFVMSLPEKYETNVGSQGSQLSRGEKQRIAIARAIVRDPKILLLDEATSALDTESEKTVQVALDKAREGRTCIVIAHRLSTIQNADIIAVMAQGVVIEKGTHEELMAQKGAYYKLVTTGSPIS
Protocol: BSEP inhibition was evaluated using human hepatocytes cultured between two layer of collagen (sandwich configuration). In this culture condition, hepatocytes express relevant transporters including BSEP and retain the bile canalicular structure. An inhibition of the biliary clearance of Taurocolic Acid (TCA), a known BSEP substrate, was used to assess BSEP interaction.
BSEP inhibition was evaluated using cryopreserved human hepatocytes (Plateable Cryopreserved Human Hepatocytes, BIOIVT) cultured for 5 day between two layer of collagen (sandwich configuration). In this culture condition, hepatocytes express relevant transporters including BSEP and retain the bile canalicular structure.
On day 5 of culture, hepatic cells are ready for the assay and the biliary clearance of Taurocolic Acid (TCA), a known BSEP substrate, can be estimated in presence and in absence of compound of interest.
The sample solution was prepared dissolving test compound and TCA in DMSO and then diluted in the Assay Buffer: Hank's Balance Salt Solution (HBSS+) warmed at 37° C. before use, to give the 10 μM TCA working solution with and without 50 μM of test compound. Hepatocytes were incubated for 10 minutes with these working solutions allowing TCA to be excreted into bile. At the end of incubation, the working solution was aspirated, and the content of the bile was collected through the addition of HBSS Modified without Ca2+/Mg2+(HBSS−). The presence of Ca2+ in the buffer is required to maintain the integrity of the tight junctions, the diffusional barrier between the canalicular lumen and extracellular space. Instead, incubation of cells in Ca2+-free buffer disrupts the tight junctions and opens the bile canalicular structures, allowing the bile content to be released and collect for HPLC-MS/MS analysis.
The in vitro biliary clearance of TCA incubated with and without test compounds is calculated according to the following formula:
where • Acc. Bile=(TCA amount in HBSS (−) buffer samples (pmol/mg protein)*Volume of each samples (mL))/Protein content per well (mg) • AUC=Incubation time (min)*T0 Concentration. T0 concentration is the initial TCA concentration in the medium.
The inhibition of BSEP was calculated as percentage of inhibition of TCA biliary clearance in presence of compound of interest, according to the following formula: BSEP inhibition %=100−(TCA ClBil with test compound*100)
TCA ClBil without test compound.

[3] = molecular target: human recombinant LPA1 expressed in CHO cells (Homo sapiens (Human), UniProt Q92633); assay: LPA1 antagonist FLIPR calcium assay in CHO-hLPA1 cells; assay type: cell-based; conditions: range of activity; CHO-hLPA1, LPA EC80, Ca2+ mobilization; read-out: LPA1 IC50
human recombinant LPA1 expressed in CHO cells, sequence (Q92633 whole entry): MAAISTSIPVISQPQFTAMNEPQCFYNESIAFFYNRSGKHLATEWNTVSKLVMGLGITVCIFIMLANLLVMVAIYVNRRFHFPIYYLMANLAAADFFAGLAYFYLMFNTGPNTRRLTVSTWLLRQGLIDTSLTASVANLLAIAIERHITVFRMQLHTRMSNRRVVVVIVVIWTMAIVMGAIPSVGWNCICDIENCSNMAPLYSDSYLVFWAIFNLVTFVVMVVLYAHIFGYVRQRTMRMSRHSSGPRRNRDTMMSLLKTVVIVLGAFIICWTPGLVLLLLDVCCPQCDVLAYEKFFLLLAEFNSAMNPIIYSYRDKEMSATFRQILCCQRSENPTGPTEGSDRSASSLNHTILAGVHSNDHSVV
Protocol: The effectiveness of compounds of the present invention as LPA1 antagonists can be determined at the human recombinant LPA1 expressed in CHO cells, using a FLIPR assay in 384 well format.
CHO-hLPA1 cell lines are cultured in a humidified incubator at 5% CO2 in DMEM/F-12 (1:1) MIXTURE with 2 mM Glutamax, supplemented with 10% of Foetal Bovine Serum, 1 mM Sodium Pyruvate, 11 mM Hepes and 1× Penicillin/Streptomycin. […] Serial dilutions (1:3 or 1:4, 11 points CRC) of compounds are performed in 100% DMSO at 200× the final concentration. […] The final concentration of DMSO in the assay will be 0.5% in each well. Medium is removed by aspiration and cells are then incubated with 30 μl of a loading solution containing 5 μM of the cytoplasmic Ca2+ indicator Cal-520 AM in Assay Buffer containing 2.5 mM probenecid for 30 min at 37° C. incubator (cell loading). The loaded cell plates are transferred into the FLIPR instrument and calcium responses are monitored during the on-line addition protocols. For testing of compounds, after the cell loading, 10 μl/well of 4× antagonists' solution was added onto the cells. After 30 min pre-incubation (at 37° C.), 10 μl/well of 5× concentrated LPA EC80 was added and Ca2+ mobilization responses was followed during the on-line addition protocol. Intracellular peak fluorescence values subtracted by baseline fluorescence are exported and analysed to determine IC50 values, respectively. The calcium response is expressed as percentage of the maximal inhibition of the EC80 agonist response.
The raw data (peak height expressed as relative fluorescence units) are normalized and transformed into “percent of inhibition”. Curve fitting and pIC50 (−LogIC50) estimations are carried out using a four-parameter logistic model using XLfit Software.

SMILES	Papp at 120 min, 10 µM [1] [×10⁻⁶ cm/s]	inhibition at 10 min, 50 μM [2] [%]	IC50 [3] [nM]
Cc1nc(-c2onc(C)c2NC(=O)O[C@H](C)c2ccccc2Cl)ccc1NC(=O)C1CCCCC1C(=O)O (single isomer, unassigned) [Example 13]	≥ 1.5	≤ 50	
Cc1nc(-c2cnn(C)c2NC(=O)O[C@H](C)c2ccccc2Cl)ccc1NC(=O)[C@H]1CCCC[C@@H]1C(=O)O (stereo in doubt) [Example 2, (1S,2S)-2-((6-(5-((((R)-1-(2-chlorophenyl)ethoxy)carbony1)amino)-1-methyl-1H-pyrazol-4-yl)-2-methylpyridin-3-y1)carbamoyl)cyclohexane-1-carboxylic acid]	≥ 1.5	≤ 50	
COc1ccccc1[C@@H](C)OC(=O)Nc1c(C)noc1-c1ccc(NC(=O)[C@H]2CCCC[C@@H]2C(=O)O)cn1 [Example 37, (1S,2S)-2-((6-(4-((((R)-1-(2-methoxyphenyl)ethoxy)carbonyl)amino)-3-methylisoxazol-5-yl)pyridin-3-yl)carbamoyl)cyclohexane-1-carboxylic acid]		≤ 50	50 to 250
Cc1noc(-c2ccc(NC(=O)[C@H]3CCCC[C@@H]3C(=O)O)cn2)c1NC(=O)O[C@H](C)c1ccccc1 [Example 41, (1S,2S)-2-((6-(3-methyl-4-((((R)-1-phenylethoxy)carbonyl)amino)isoxazol-5-yl)pyridin-3-yl)carbamoyl)cyclohexane-1-carboxylic acid]		≤ 50	< 50
Cc1nc(-c2snc(C)c2NC(=O)O[C@H](C)c2ccccc2Cl)ccc1NC(=O)[C@H]1CCCC[C@@H]1C(=O)O [Example 42, (1S,2S)-2-((6-(4-((((R)-1-(2-chlorophenyl)ethoxy)carbonyl)amino)-3-methylisothiazol-5-yl)-2-methylpyridin-3-yl)carbamoyl)cyclohexane-1-carboxylic acid]	≥ 1.5		
Cc1nc(-c2cnn(C)c2NC(=O)O[C@H](C)c2ccccc2)ccc1NC(=O)[C@H]1CCCC[C@@H]1C(=O)O [Example 43, (1S,2S)-2-((2-methyl-6-(1-methyl-5-((((R)-1-phenylethoxy)carbonyl)amino)-1H-pyrazol-4-yl)pyridin-3-yl)carbamoyl)cyclohexane-1-carboxylic acid]		≤ 50	50 to 250
Cc1nc(-c2nnn(C)c2NC(=O)O[C@H](C)c2ccccc2)ccc1NC(=O)[C@H]1CCCC[C@@H]1C(=O)O [Example 44, (1S,2S)-2-((2-methyl-6-(1-methyl-5-((((R)-1-phenylethoxy)carbonyl)amino)-1H-1,2,3-triazol-4-yl)pyridin-3-yl)carbamoyl)cyclohexane-1-carboxylic acid]		≤ 50	< 50
Cc1nc(-c2nnn(C)c2NC(=O)O[C@H](C)c2ccccc2C(F)(F)F)ccc1NC(=O)[C@H]1CCCC[C@@H]1C(=O)O [Example 45, (1S,2S)-2-((2-methyl-6-(1-methyl-5-((((R)-1-(2-(trifluoromethyl)phenyl)ethoxy)carbonyl)amino)-1H-1,2,3-triazol-4-yl)pyridin-3-yl)carbamoyl)cyclohexane-1-carboxylic acid]		≤ 50	50 to 250
Cc1nc(-c2nnn(C)c2NC(=O)O[C@H](C)c2ccccc2F)ccc1NC(=O)[C@H]1CCCC[C@@H]1C(=O)O [Example 47, (1S,2S)-2-((6-(5-((((R)-1-(2-fluorophenyl)ethoxy)carbonyl)amino)-1-methyl-1H-1,2,3-triazol-4-yl)-2-methylpyridin-3-yl)carbamoyl)cyclohexane-1-carboxylic acid]		≤ 50	< 50
CCn1nnc(-c2ccc(NC(=O)[C@H]3CCCC[C@@H]3C(=O)O)c(C)n2)c1NC(=O)O[C@H](C)c1ccccc1Cl [Example 48, (1S,2S)-2-((6-(5-((((R)-1-(2-chlorophenyl)ethoxy)carbonyl)amino)-1-ethyl-1H-1,2,3-triazol-4-yl)-2-methylpyridin-3-yl)carbamoyl)cyclohexane-1-carboxylic acid]		≤ 50	< 50
Cc1nc(-c2cnn(C)c2NC(=O)O[C@H](C)C2CCCC2)ccc1NC(=O)[C@H]1CCCC[C@@H]1C(=O)O [Example 51, (1S,2S)-2-((6-(5-((((R)-1-cyclopentylethoxy)carbonyl)amino)-1-methyl-1H-pyrazol-4-yl)-2-methylpyridin-3-yl)carbamoyl)cyclohexane-1-carboxylic acid]		≤ 50	250 to 600
CCC[C@@H](C)OC(=O)Nc1c(-c2ccc(NC(=O)[C@H]3CCCC[C@@H]3C(=O)O)c(C)n2)nnn1C [Example 52, (1S,2S)-2-((2-methyl-6-(1-methyl-5-(((((R)-pentan-2-yl)oxy)carbonyl)amino)-1H-1,2,3-triazol-4-yl)pyridin-3-yl)carbamoyl)cyclohexane-1-carboxylic acid]		≤ 50	50 to 250
C[C@@H](OC(=O)Nc1c(-c2ccc(NC(=O)[C@H]3CCCC[C@@H]3C(=O)O)c(F)n2)nnn1C)c1ccccc1Cl [Example 53, (1S,2S)-2-((6-(5-((((R)-1-(2-chlorophenyl)ethoxy)carbonyl)amino)-1-methyl-1H-1,2,3-triazol-4-yl)-2-fluoropyridin-3-yl)carbamoyl)cyclohexane-1-carboxylic acid]		≤ 50	< 50
